Measured values published in ChEMBL document CHEMBL4219032, “Triple Reuptake Inhibitors as Potential Therapeutics for Depression and Other Disorders: Design Paradigm and Developmental Challenges” (J Med Chem, 2018).

Columns and labels:
[1] = target: T1, Sodium-dependent dopamine transporter (Homo sapiens, UniProt Q01959); assay: Inhibition of DAT (unknown origin) assessed as reduction of [3H]-DA re-uptake
[2] = target: Sodium-dependent noradrenaline transporter (Homo sapiens, UniProt P23975)
Description: Binding affinity to NET (unknown origin)

[3] = target: T1, Sodium-dependent dopamine transporter
Description: Binding affinity to DAT (unknown origin)

[4] = system: Rattus norvegicus; assay: In vivo receptor occupancy at DAT in Sprague-Dawley rat at 0.1 mg/kg, sc measured at 1 to 8 hrs post dose; type: functional
[5] = system: Rattus norvegicus; assay: In vivo receptor occupancy at SERT in Sprague-Dawley rat at 0.1 mg/kg, sc measured at 1 to 8 hrs post dose; type: functional
[6] = Ratio of drug uptake in Sprague-Dawley rat brain to plasma at 1 mg/kg, sc by HPLC analysis; type: ADME, organism-based; details: read-out: BPR
[7] = system: Rattus norvegicus; assay: In vivo receptor occupancy at NET in Sprague-Dawley rat at 0.1 mg/kg, sc measured at 1 to 8 hrs post dose; type: functional
[8] = target: Sodium-dependent serotonin transporter (Homo sapiens, UniProt P31645)
Chain of Sodium-dependent serotonin transporter (P31645 whole entry): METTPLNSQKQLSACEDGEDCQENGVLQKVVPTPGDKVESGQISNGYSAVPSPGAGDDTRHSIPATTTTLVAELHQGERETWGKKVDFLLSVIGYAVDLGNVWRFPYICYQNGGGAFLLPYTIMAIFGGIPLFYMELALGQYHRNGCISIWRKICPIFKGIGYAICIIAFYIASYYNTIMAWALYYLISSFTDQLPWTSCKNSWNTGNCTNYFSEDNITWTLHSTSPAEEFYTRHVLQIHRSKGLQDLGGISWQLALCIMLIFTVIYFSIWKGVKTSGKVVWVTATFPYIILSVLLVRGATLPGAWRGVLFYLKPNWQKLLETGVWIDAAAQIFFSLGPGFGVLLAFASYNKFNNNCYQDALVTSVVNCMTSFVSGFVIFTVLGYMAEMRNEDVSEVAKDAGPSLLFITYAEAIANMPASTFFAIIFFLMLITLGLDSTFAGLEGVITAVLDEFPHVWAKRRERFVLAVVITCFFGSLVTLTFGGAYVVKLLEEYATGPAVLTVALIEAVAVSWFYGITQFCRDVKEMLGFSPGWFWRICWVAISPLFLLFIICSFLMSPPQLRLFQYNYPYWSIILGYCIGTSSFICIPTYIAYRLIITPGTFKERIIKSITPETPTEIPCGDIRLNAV
Description: Binding affinity to SERT (unknown origin)

[9] = system: Mus musculus; assay: Reversal of motor depression in po dosed mouse measured at 3rd, 6th and 23rd hr followed by second administration on 24th hr administered as 4 injections for 4 consecutive days measured from day 3 to 10 days post last dose; type: functional; details: read-out: MED
[10] = system: Mus musculus; assay: Reversal of ptosis in po dosed mouse measured at 3rd, 6th and 23rd hr followed by second administration on 24th hr administered as 4 injections for 4 consecutive days measured from day 3 to 10 days post last dose; type: functional
[11] = system: Rattus norvegicus; assay: In vivo receptor occupancy at SERT in ip dosed rat brain measured 60 mins post dose; type: functional; details: 1 h
[12] = system: Rattus norvegicus; assay: In vivo receptor occupancy at DAT in ip dosed rat brain measured 60 mins post dose; type: functional; details: 1 h
[13] = system: Rattus norvegicus; assay: In vivo receptor occupancy at NET in ip dosed rat brain measured 60 mins post dose; type: functional; details: 1 h

T1 sequence (Q01959 whole entry): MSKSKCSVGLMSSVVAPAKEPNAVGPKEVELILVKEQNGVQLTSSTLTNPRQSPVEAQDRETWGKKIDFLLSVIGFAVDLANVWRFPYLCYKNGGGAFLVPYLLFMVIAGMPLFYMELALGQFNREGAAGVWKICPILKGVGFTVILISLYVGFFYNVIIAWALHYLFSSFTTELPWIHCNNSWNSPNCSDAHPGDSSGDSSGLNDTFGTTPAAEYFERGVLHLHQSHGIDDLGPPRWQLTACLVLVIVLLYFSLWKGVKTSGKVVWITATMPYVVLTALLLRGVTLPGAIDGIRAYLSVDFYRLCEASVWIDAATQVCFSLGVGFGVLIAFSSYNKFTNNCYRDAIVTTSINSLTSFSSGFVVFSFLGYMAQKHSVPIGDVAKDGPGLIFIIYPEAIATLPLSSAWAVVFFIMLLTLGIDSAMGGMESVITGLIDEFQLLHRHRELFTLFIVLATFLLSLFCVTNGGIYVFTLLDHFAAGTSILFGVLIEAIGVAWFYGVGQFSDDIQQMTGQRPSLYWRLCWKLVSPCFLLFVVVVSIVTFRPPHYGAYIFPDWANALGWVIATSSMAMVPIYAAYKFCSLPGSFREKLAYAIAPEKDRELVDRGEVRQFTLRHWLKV
Chain of Sodium-dependent noradrenaline transporter (P23975 whole entry): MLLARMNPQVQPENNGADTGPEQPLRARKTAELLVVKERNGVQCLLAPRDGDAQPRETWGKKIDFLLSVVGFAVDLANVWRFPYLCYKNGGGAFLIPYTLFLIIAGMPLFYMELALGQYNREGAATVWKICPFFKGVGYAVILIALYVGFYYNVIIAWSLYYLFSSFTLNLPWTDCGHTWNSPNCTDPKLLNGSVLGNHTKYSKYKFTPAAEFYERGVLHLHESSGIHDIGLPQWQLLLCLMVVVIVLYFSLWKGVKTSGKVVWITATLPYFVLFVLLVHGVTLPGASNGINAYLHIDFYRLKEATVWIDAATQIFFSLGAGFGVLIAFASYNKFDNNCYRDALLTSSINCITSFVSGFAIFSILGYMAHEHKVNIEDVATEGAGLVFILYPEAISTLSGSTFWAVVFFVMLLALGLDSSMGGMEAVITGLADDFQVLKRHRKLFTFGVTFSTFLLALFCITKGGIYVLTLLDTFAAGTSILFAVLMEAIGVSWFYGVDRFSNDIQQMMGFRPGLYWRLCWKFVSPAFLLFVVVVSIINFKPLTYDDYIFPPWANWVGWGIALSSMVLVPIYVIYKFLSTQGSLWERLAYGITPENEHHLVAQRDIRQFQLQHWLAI

Question: For `CNC[C@H]1C2CCC(C2)[C@@H]1c1ccc2ccccc2c1` (stereo partly drawn), which IC50 [1] is on record?
Answer: 0.096 µM

Question: With `C#Cc1ccc(C2CN3CCCC3c3ccccc32)cc1` (racemic) as the compound, how does the Ki [2] read?
Answer: 0.0166 µM

Question: And the Ki [3]?
Answer: 0.0052 µM

Question: What about the Occ [4] of the same compound?
Answer: 50%

Question: What about the Occ [5] of the same compound?
Answer: 94%

Question: And the Kp [6]?
Answer: 7.5

Question: And the Occ [7]?
Answer: 95%

Question: And the Ki [8]?
Answer: 0.0009 µM

Question: For `Clc1ccc([C@]23CNC[C@H]2C3)cc1Cl` [AMITIFADINE], which minimal effective dose [9] is on record?
Answer: 1.6 mg/kg

Question: What about the ED50 [10] of the same compound?
Answer: 2.2 mg/kg

Question: What about the ED50 [11] of the same compound?
Answer: 3 mg/kg

Question: And the ED50 [12]?
Answer: 95 mg/kg

Question: What about the ED50 [13] of the same compound?
Answer: 19 mg/kg
